Laboratory results reported in ChEMBL document CHEMBL3603734, “Design and biological evaluation of novel quinolone-based metronidazole derivatives as potent Cu(2+) mediated DNA-targeting antibacterial agents” (Bioorg Med Chem Lett, 2015).
In brackets after ≈: the same amount, converted by molar mass. Activity calls are given as the source filed them. The rule behind the calls is not given here.

Assays:
Micrococcus luteus = experiment: Antibacterial activity against Micrococcus luteus ATCC 4698 after 24 hrs by microbroth dilution method; format: functional; details: NCTC 2665, 24 h
HEK293 = experiment: Cytotoxicity against HEK293 cells assessed as inhibition of cell proliferation after 72 hrs by MTT assay; format: cell-based; details: Homo sapiens, HEK293, 72 h
Pseudomonas aeruginosa [1] = experiment: Binding affinity to Pseudomonas aeruginosa DNA assessed as 1:1 compound-DNA complex formation at 6 x 10^-6 mol/L by fluorescence spectroscopic analysis in presence of Cu2+
Bacillus = experiment: Antibacterial activity against Bacillus proteus ATCC 13315 after 24 hrs by microbroth dilution method; format: functional; details: ATCC 13315, 24 h
Saccharomyces cerevisiae = experiment: Antifungal activity against Saccharomyces cerevisiae ATCC 9763 after 24 hrs by microbroth dilution method; format: functional; details: ATCC 9763, 24 h
Pseudomonas aeruginosa [2] = experiment: Binding affinity to Pseudomonas aeruginosa DNA up to 1.4 x 10^-5 mol/L by UV-vis absorption spectra analysis
[3] = Cytotoxicity against HEK293 cells assessed as inhibition of cell proliferation at 30 umol/L after 72 hrs by MTT assay relative to control; format: cell-based; details: human
[4] = Cytotoxicity against HEK293 cells assessed as inhibition of cell proliferation at 10^2 umol/L after 72 hrs by MTT assay relative to control; format: cell-based; details: human
[5] = Cytotoxicity against MEF assessed as inhibition of cell proliferation at 3 x 10^2 umol/L after 72 hrs by MTT assay relative to control; format: cell-based; details: mouse, MEF cells
Escherichia coli = experiment: Antibacterial activity against Escherichia coli JM109 after 24 hrs by microbroth dilution method; format: functional; details: JM109, 24 h
Bacillus spizizenii = experiment: Antibacterial activity against Bacillus subtilis ATCC 6633 after 24 hrs by microbroth dilution method; format: functional; details: ATCC 6633, 24 h
[6] = Cytotoxicity against mouse C2C12 cells assessed as inhibition of cell proliferation at 3 x 10^-2 umol/L after 72 hrs by MTT assay relative to control; format: cell-based
[7] = Ionization constant, pKa of the compound by UV spectroscopic analysis; format: physicochemical
[8] = Cytotoxicity against MEF assessed as inhibition of cell proliferation at 1 umol/L after 72 hrs by MTT assay relative to control; format: cell-based; details: mouse, MEF cells
[9] = Cytotoxicity against mouse C2C12 cells assessed as inhibition of cell proliferation at 3 x 10^-1 umol/L after 72 hrs by MTT assay relative to control; format: cell-based
[10] = Cytotoxicity against mouse C2C12 cells assessed as inhibition of cell proliferation at 10^2 umol/L after 72 hrs by MTT assay relative to control; format: cell-based
[11] = Cytotoxicity against MEF assessed as inhibition of cell proliferation at 10^-1 umol/L after 72 hrs by MTT assay relative to control; format: cell-based; details: mouse, MEF cells
Salmonella enterica = experiment: Antibacterial activity against Salmonella enterica ATCC 14028 after 24 hrs by microbroth dilution method; format: functional; details: ATCC 14028, 24 h
[12] = Cytotoxicity against mouse C2C12 cells assessed as inhibition of cell proliferation at 1 umol/L after 72 hrs by MTT assay relative to control; format: cell-based
Pichia norvegensis = experiment: Antifungal activity against Candida mycoderma ATCC 9888 after 24 hrs by microbroth dilution method; format: functional; details: ATCC 9888, 24 h
Staphylococcus aureus [13] = experiment: Antibacterial activity against Staphylococcus aureus ATCC 25923 after 24 hrs by microbroth dilution method; format: functional; details: ATCC 25923, 24 h
[14] = Cytotoxicity against HEK293 cells assessed as inhibition of cell proliferation at 3 x 10^2 umol/L after 72 hrs by MTT assay relative to control; format: cell-based; details: human
[15] = Cytotoxicity against MEF assessed as inhibition of cell proliferation at 3 x 10^-1 umol/L after 72 hrs by MTT assay relative to control; format: cell-based; details: mouse, MEF cells
Pseudomonas aeruginosa [16] = experiment: Binding affinity to Cu2+ assessed as 2:1 compound-metal complex formation at 6 x 10^-6 mol/L by fluorescence spectroscopic analysis
[17] = Cytotoxicity against mouse C2C12 cells assessed as inhibition of cell proliferation at 3 umol/L after 72 hrs by MTT assay relative to control; format: cell-based
[18] = Cytotoxicity against MEF assessed as inhibition of cell proliferation at 10^2 umol/L after 72 hrs by MTT assay relative to control; format: cell-based; details: mouse, MEF cells
[19] = Cytotoxicity against MEF assessed as inhibition of cell proliferation at 3 x 10^-2 umol/L after 72 hrs by MTT assay relative to control; format: cell-based; details: mouse, MEF cells
[20] = Cytotoxicity against HEK293 cells assessed as inhibition of cell proliferation at 10^-1 umol/L after 72 hrs by MTT assay relative to control; format: cell-based; details: human
[21] = Cytotoxicity against MEF assessed as inhibition of cell proliferation at 3 umol/L after 72 hrs by MTT assay relative to control; format: cell-based; details: mouse, MEF cells
Pseudomonas aeruginosa [22] = experiment: Antibacterial activity against Pseudomonas aeruginosa ATCC 27853 after 24 hrs by microbroth dilution method; format: functional; details: ATCC 27853, 24 h
MEF = experiment: Cytotoxicity against MEF assessed as inhibition of cell proliferation after 72 hrs by MTT assay; format: cell-based; details: Mus musculus
Staphylococcus aureus [23] = experiment: Antibacterial activity against methicillin-resistant Staphylococcus aureus N315 after 24 hrs by microbroth dilution method; format: functional; details: N315, 24 h
[24] = Cytotoxicity against mouse C2C12 cells assessed as inhibition of cell proliferation at 10 umol/L after 72 hrs by MTT assay relative to control; format: cell-based
[25] = Cytotoxicity against MEF assessed as inhibition of cell proliferation at 30 umol/L after 72 hrs by MTT assay relative to control; format: cell-based; details: mouse, MEF cells
[26] = Cytotoxicity against HEK293 cells assessed as inhibition of cell proliferation at 10^-2 umol/L after 72 hrs by MTT assay relative to control; format: cell-based; details: human
[27] = Cytotoxicity against HEK293 cells assessed as inhibition of cell proliferation at 3 x 10^-2 umol/L after 72 hrs by MTT assay relative to control; format: cell-based; details: human
[28] = Cytotoxicity against mouse C2C12 cells assessed as inhibition of cell proliferation at 30 umol/L after 72 hrs by MTT assay relative to control; format: cell-based
[29] = Cytotoxicity against HEK293 cells assessed as inhibition of cell proliferation at 3 x 10^-1 umol/L after 72 hrs by MTT assay relative to control; format: cell-based; details: human
[30] = Cytotoxicity against mouse C2C12 cells assessed as inhibition of cell proliferation at 3 x 10^2 umol/L after 72 hrs by MTT assay relative to control; format: cell-based
C2C12 = experiment: Cytotoxicity against mouse C2C12 cells assessed as inhibition of cell proliferation after 72 hrs by MTT assay; format: cell-based; details: C2C12, 72 h
[31] = Cytotoxicity against HEK293 cells assessed as inhibition of cell proliferation at 3 umol/L after 72 hrs by MTT assay relative to control; format: cell-based; details: human
Aspergillus flavus = experiment: Antifungal activity against Aspergillus flavus ATCC 204304 after 24 hrs by microbroth dilution method; format: functional; details: ATCC 204304, 24 h
[32] = Cytotoxicity against HEK293 cells assessed as inhibition of cell proliferation at 1 umol/L after 72 hrs by MTT assay relative to control; format: cell-based; details: human
Pseudomonas aeruginosa [33] = experiment: Binding affinity to Pseudomonas aeruginosa DNA by fluorescence spectroscopic analysis
[34] = Cytotoxicity against mouse C2C12 cells assessed as inhibition of cell proliferation at 10^-1 umol/L after 72 hrs by MTT assay relative to control; format: cell-based
Candida albicans = experiment: Antifungal activity against Candida albicans ATCC 10231 after 24 hrs by microbroth dilution method; format: functional; details: ATCC 10231, 24 h
Pseudomonas aeruginosa [35] = experiment: Binding affinity to Pseudomonas aeruginosa DNA assessed as Stem-Volmer quenching constant by fluorescence spectroscopic analysis in presence of KI
[36] = Cytotoxicity against MEF assessed as inhibition of cell proliferation at 10 umol/L after 72 hrs by MTT assay relative to control; format: cell-based; details: mouse, MEF cells
[37] = Cytotoxicity against HEK293 cells assessed as inhibition of cell proliferation at 10 umol/L after 72 hrs by MTT assay relative to control; format: cell-based; details: human
[38] = Cytotoxicity against MEF assessed as inhibition of cell proliferation at 10^-2 umol/L after 72 hrs by MTT assay relative to control; format: cell-based; details: mouse, MEF cells
Cyberlindnera jadinii = experiment: Antifungal activity against Candida utilis ATCC 9950 after 24 hrs by microbroth dilution method; format: functional; details: Williopsis jadinii, ATCC 9950, 24 h
[39] = Cytotoxicity against mouse C2C12 cells assessed as inhibition of cell proliferation at 10^-2 umol/L after 72 hrs by MTT assay relative to control; format: cell-based

With `Cc1ncc([N+](=O)[O-])n1CC(O)CNC1CCN(c2c(F)cc3c(=O)c(C(=O)O)cn(C4CC4)c3c2Cl)C1` (configuration not stated) the MIC (Micrococcus luteus) was 0.25 µg/mL (≈ 0.455 µM), the IC50 (HEK293) was 126 µg/mL (≈ 230 µM) and the Activity (Pseudomonas aeruginosa [1]) was “Active”. For the same compound, the MIC (Bacillus) was 0.25 µg/mL (≈ 0.455 µM), the MIC (Saccharomyces cerevisiae) was 8 µg/mL (≈ 14.6 µM) and the Activity (Pseudomonas aeruginosa [2]) was “Active”. For the same compound, the inhibition at 72 h, 30 µM [3] was 25.7%, the inhibition at 72 h, 100 umol/L [4] was 35.8% and the inhibition at 72 h, 300 umol/L [5] was 58.1%. The MIC (Escherichia coli) was 2 µg/mL (≈ 3.64 µM), the MIC (Bacillus spizizenii) was 0.25 µg/mL (≈ 0.455 µM) and the inhibition at 72 h, 0.03 umol/L [6] was 0%. It also gave a pKa [7] of 6.48, an inhibition at 72 h, 1 µM [8] of 0% and an inhibition at 72 h, 0.3 umol/L [9] of 0.3%. It also gave an inhibition at 72 h, 100 umol/L [10] of 58.2%, an inhibition at 72 h, 0.1 umol/L [11] of 0% and an MIC (Salmonella enterica) of 0.5 µg/mL (≈ 0.911 µM). It also gave an inhibition at 72 h, 1 µM [12] of 0.7%, an MIC (Pichia norvegensis) of 8 µg/mL (≈ 14.6 µM) and an MIC (Staphylococcus aureus [13]) of 0.5 µg/mL (≈ 0.911 µM). The inhibition at 72 h, 300 umol/L [14] was 57.9%, the inhibition at 72 h, 0.3 umol/L [15] was 0% and the Activity (Pseudomonas aeruginosa [16]) was “Active”. The inhibition at 72 h, 3 µM [17] was 4%, the inhibition at 72 h, 100 umol/L [18] was 51.7% and the inhibition at 72 h, 0.03 umol/L [19] was 0%. It also gave an inhibition at 72 h, 0.1 umol/L [20] of 0.9%, an inhibition at 72 h, 3 µM [21] of 8.4% and an MIC (Pseudomonas aeruginosa [22]) of 0.25 µg/mL (≈ 0.455 µM). It also gave an IC50 (MEF) of 60 µg/mL (≈ 109 µM), an MIC (Staphylococcus aureus [23]) of 0.25 µg/mL (≈ 0.455 µM) and an inhibition at 72 h, 10 µM [24] of 10.3%. The inhibition at 72 h, 30 µM [25] was 39.9%, the inhibition at 72 h, 0.01 umol/L [26] was 0.1% and the inhibition at 72 h, 0.03 umol/L [27] was 1.5%. For the same compound, the inhibition at 72 h, 30 µM [28] was 22.4%, the inhibition at 72 h, 0.3 umol/L [29] was 4.1% and the inhibition at 72 h, 300 umol/L [30] was 65.5%. The IC50 (C2C12) was 57 µg/mL (≈ 104 µM), the inhibition at 72 h, 3 µM [31] was 13% and the MIC (Aspergillus flavus) was 4 µg/mL (≈ 7.29 µM). The inhibition at 72 h, 1 µM [32] was 5.3%, the Activity (Pseudomonas aeruginosa [33]) was “inactive” and the inhibition at 72 h, 0.1 umol/L [34] was 0%. The MIC (Candida albicans) was 16 µg/mL (≈ 29.1 µM), the KSV (Pseudomonas aeruginosa [35]) was 7.02 L/mol and the inhibition at 72 h, 10 µM [36] was 22.7%. The inhibition at 72 h, 10 µM [37] was 21.8%, the inhibition at 72 h, 0.01 umol/L [38] was 0% and the MIC (Cyberlindnera jadinii) was 2 µg/mL (≈ 3.64 µM). For the same compound, the inhibition at 72 h, 0.01 umol/L [39] was 0%.
